Assay results: US20020022659A1, “Crystalline and salt forms of an HIV protease inhibitor” (priority 2000, published 2002)
≈ marks a conversion by molar mass, not a printed value. Values belong to the compound of their own block, whether it stands above or below them.

Tests used:
HIV protease = HIV protease (Human immunodeficiency virus type 1 group M subtype B, UniProt P04585); assay: HIV protease inhibition (stated as tested, no method given); format: biochemical
[1] = Polymorphic relationship of the mono-methane sulfonate forms (relative stability); format: physicochemical; details: anhydrous monotropic polymorphs of the mono-methane sulfonate; between 20° C. and 206° C.
Excerpt: Form I and Form II are anhydrous monotropic polymorphs. […] Form II, the higher melting form, can be formed directly from crystallization as described above, while Form I can be synthesized using ethyl acetate followed by drying. However, the crystal packing of the ethyl acetate solvate and Form I are distinct from each other confirming that Form I is an actual anhydrous form.

HIV-1 (RF) = assay: HIV RNA assay, microplate based compound evaluation in HIV-1 infected MT-2 cells; format: cell-based; details: Human immunodeficiency virus 1, MT2, 72 h; HIV-1 (RF) infected MT-2 cells, 3 days of culture; virus dilutions selected to give this value (inoculum standardisation); read-out: IC90 value (concentration of compound required to reduce the HIV RNA level by 90%)
Description: DNA Plasmids and in vitro RNA Transcripts:
Plasmid pDAB 72 containing both gag and pol sequences of BH10 (bp 113-1816) cloned into PTZ 19R was prepared according to Erickson-Viitanen et al. AIDS Research and Human Retroviruses 1989, 5, 577. The plasmid was linearized with Bam HI prior to the generation of in vitro RNA transcripts using the Riboprobe Gemini system II kit (Promega) with T7 RNA polymerase. Synthesized RNA was purified by treatment with RNase free DNAse (Promega), phenol-chloroform extraction, and ethanol precipitation. RNA transcripts were dissolved in water, and stored at −70° C. The concentration of RNA was determined from the A260.
Biotinylated capture probes were purified by HPLC after synthesis on an Applied Biosystems (Foster City, Calif.) DNA synthesizer by addition of biotin to the 5′ terminal end of the oligonucleotide, using the biotin-phosphoramidite reagent of Cocuzza, Tet. Lett. 1989, 30, 6287. […]
MT-2 and MT-4 cells were maintained in RPMI 1640 supplemented with 5% fetal calf serum (FCS) for MT-2 cells or 10% FCS for MT-4 cells, 2 mM L-glutamine and 50 μg/mL gentamycin, all from Gibco. […] Infectious titers of HIV-1(RF) stocks were 1-3×10^7 PFU (plaque forming units)/mL as measured by plaque assay on MT-2 cells (see below). […]

Compound: CC(C)CN(C[C@@H](O)[C@H](Cc1ccccc1)NC(=O)[C@@H](NC(=O)CNCc1cccc(F)c1)C(C)(C)C)S(=O)(=O)c1cccc(N)c1 [Compound A]
HIV protease inhibitor activity (HIV protease): potent HIV protease inhibitor

Compound: CC(C)CN(C[C@@H](O)[C@H](Cc1ccccc1)NC(=O)[C@@H](NC(=O)CNCc1cccc(F)c1)C(C)(C)C)S(=O)(=O)c1cccc(N)c1 [Form II]
Relative stability of polymorphs [1]: more stable than Form I

IC90 (HIV-1 (RF)): 0.2 µg/mL (≈ 0.947 µM)
Compound: Nc1ccn([C@H]2CC[C@@H](CO)O2)c(=O)n1 [ddC, dideoxycytidine]
